Measurements as given in PubChem BioAssay (NCI).
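1) Cells in 96-well plates. 2) Compound, 48 h, 5 concentrations. 3) Linear interpolation between surrounding doses. 4) Unreached endpoint = highest concentration. At the TGI there is no net growth.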

Assays:
Experiment in all cases: NCI anticancer screen, dose series, 48 h
OVCAR-5 ovarian = system: OVCAR-5 ovarian
A498 renal = system: A498 renal
ACHN renal = system: ACHN renal
SK-MEL-2 melanoma = system: SK-MEL-2 melanoma
HCT-116 colon = system: HCT-116 colon
UACC-257 melanoma = system: UACC-257 melanoma
OVCAR-8 ovarian = system: OVCAR-8 ovarian
CCRF-CEM leukemia = system: CCRF-CEM leukemia
RXF 393 renal = system: RXF 393 renal
A549 NSCLC = system: A549 NSCLC
SN12C renal = system: SN12C renal
HL-60(TB) leukemia = system: HL-60(TB) leukemia
HCT-15 colon = system: HCT-15 colon
NCI-H226 lung = system: NCI-H226 lung
M14 melanoma = system: M14 melanoma
SW-620 colon = system: SW-620 colon
SNB-78 CNS = system: SNB-78 CNS
HT29 colon = system: HT29 colon
SNB-75 CNS = system: SNB-75 CNS
U251 CNS = system: U251 CNS
SK-MEL-28 melanoma = system: SK-MEL-28 melanoma
UO-31 renal = system: UO-31 renal
HCC-2998 colon = system: HCC-2998 colon
OVCAR-4 ovarian = system: OVCAR-4 ovarian
SK-OV-3 ovarian = system: SK-OV-3 ovarian
KM20L2 colon = system: KM20L2 colon
DMS 114 small cell lung = system: DMS 114 small cell lung
UACC-62 melanoma = system: UACC-62 melanoma
SR leukemia = system: SR leukemia
LXFL 529 NSCLC = system: LXFL 529 NSCLC
CAKI-1 renal = system: CAKI-1 renal
HOP-62 NSCLC = system: HOP-62 NSCLC
SF-295 CNS = system: SF-295 CNS
SK-MEL-5 melanoma = system: SK-MEL-5 melanoma
DLD-1 colon = system: DLD-1 colon
TK-10 renal = system: TK-10 renal
OVCAR-3 ovarian = system: OVCAR-3 ovarian
SF-268 CNS = system: SF-268 CNS
SNB-19 CNS = system: SNB-19 CNS
LOX IMVI melanoma = system: LOX IMVI melanoma
MOLT-4 leukemia = system: MOLT-4 leukemia
NCI-H460 lung = system: NCI-H460 lung
K-562 leukemia = system: K-562 leukemia
786-0 renal = system: 786-0 renal
XF 498 CNS = system: XF 498 CNS
COLO 205 colon = system: COLO 205 colon
RPMI-8226 leukemia = system: RPMI-8226 leukemia
KM12 colon = system: KM12 colon
NCI-H23 lung = system: NCI-H23 lung
HOP-92 NSCLC = system: HOP-92 NSCLC
IGROV1 ovarian = system: IGROV1 ovarian
SF-539 CNS = system: SF-539 CNS
MALME-3M melanoma = system: MALME-3M melanoma
EKVX NSCLC = system: EKVX NSCLC
M19-MEL melanoma = system: M19-MEL melanoma
DMS 273 small cell lung = system: DMS 273 small cell lung
NCI-H522 lung = system: NCI-H522 lung

Cc1ccc(NC(=O)C(=O)C(C2C(C)CC(=O)C2CC(=O)O)[N+](=O)[O-])cc1 (stereo not given)
TGI (OVCAR-5 ovarian): > 100 µM
TGI (A498 renal): > 100 µM
TGI (ACHN renal): > 100 µM
TGI (SK-MEL-2 melanoma): > 100 µM
TGI (HCT-116 colon): > 100 µM
TGI (UACC-257 melanoma): > 100 µM
TGI (OVCAR-8 ovarian): > 100 µM
TGI (CCRF-CEM leukemia): > 100 µM
TGI (RXF 393 renal): > 100 µM
TGI (A549 NSCLC): > 100 µM
TGI (SN12C renal): > 100 µM
TGI (HL-60(TB) leukemia): > 100 µM
TGI (HCT-15 colon): > 100 µM
TGI (NCI-H226 lung): > 100 µM
TGI (M14 melanoma): > 100 µM
TGI (SW-620 colon): > 100 µM
TGI (SNB-78 CNS): > 100 µM
TGI (HT29 colon): > 100 µM
TGI (SNB-75 CNS): > 100 µM
TGI (U251 CNS): > 100 µM
TGI (SK-MEL-28 melanoma): > 100 µM
TGI (UO-31 renal): > 100 µM
TGI (HCC-2998 colon): > 100 µM
TGI (OVCAR-4 ovarian): > 100 µM
TGI (SK-OV-3 ovarian): > 100 µM
TGI (KM20L2 colon): > 100 µM
TGI (DMS 114 small cell lung): > 100 µM
TGI (UACC-62 melanoma): > 100 µM
TGI (SR leukemia): > 100 µM
TGI (LXFL 529 NSCLC): > 100 µM
TGI (CAKI-1 renal): > 100 µM
TGI (HOP-62 NSCLC): > 100 µM
TGI (SF-295 CNS): > 100 µM
TGI (SK-MEL-5 melanoma): > 100 µM
TGI (DLD-1 colon): > 100 µM
TGI (TK-10 renal): > 100 µM
TGI (OVCAR-3 ovarian): > 100 µM
TGI (SF-268 CNS): > 100 µM
TGI (SNB-19 CNS): > 100 µM
TGI (LOX IMVI melanoma): > 100 µM
TGI (MOLT-4 leukemia): > 100 µM
TGI (NCI-H460 lung): > 100 µM
TGI (K-562 leukemia): > 100 µM
TGI (786-0 renal): > 100 µM
TGI (XF 498 CNS): > 100 µM
TGI (COLO 205 colon): > 100 µM
TGI (RPMI-8226 leukemia): > 100 µM
TGI (KM12 colon): > 100 µM
TGI (NCI-H23 lung): > 100 µM
TGI (HOP-92 NSCLC): > 100 µM
TGI (IGROV1 ovarian): > 100 µM
TGI (SF-539 CNS): > 100 µM
TGI (MALME-3M melanoma): > 100 µM
TGI (EKVX NSCLC): > 100 µM

O=C(/C=C/c1c(O)ccc2ccccc12)c1ccccc1Cl
TGI (OVCAR-5 ovarian): > 100 µM
TGI (A498 renal): > 100 µM
TGI (ACHN renal): > 100 µM
TGI (SK-MEL-2 melanoma): 92.3 µM
TGI (HCT-116 colon): 61.3 µM
TGI (UACC-257 melanoma): 46.8 µM
TGI (OVCAR-8 ovarian): > 100 µM
TGI (CCRF-CEM leukemia): 50.7 µM
TGI (RXF 393 renal): > 100 µM
TGI (A549 NSCLC): > 100 µM
TGI (SN12C renal): 86.5 µM
TGI (HL-60(TB) leukemia): 35.1 µM
TGI (HCT-15 colon): > 100 µM
TGI (M19-MEL melanoma): 28.3 µM
TGI (NCI-H226 lung): > 100 µM
TGI (M14 melanoma): 34.9 µM
TGI (SW-620 colon): 57.1 µM
TGI (SNB-78 CNS): > 100 µM
TGI (HT29 colon): > 100 µM
TGI (SNB-75 CNS): > 100 µM
TGI (U251 CNS): > 100 µM
TGI (SK-MEL-28 melanoma): 46.9 µM
TGI (UO-31 renal): > 100 µM
TGI (HCC-2998 colon): > 100 µM
TGI (OVCAR-4 ovarian): > 100 µM
TGI (SK-OV-3 ovarian): > 100 µM
TGI (KM20L2 colon): > 100 µM
TGI (DMS 114 small cell lung): 53.3 µM
TGI (UACC-62 melanoma): 29.9 µM
TGI (LXFL 529 NSCLC): > 100 µM
TGI (CAKI-1 renal): > 100 µM
TGI (HOP-62 NSCLC): > 100 µM
TGI (SF-295 CNS): 73.9 µM
TGI (SK-MEL-5 melanoma): 32.3 µM
TGI (DLD-1 colon): > 100 µM
TGI (TK-10 renal): > 100 µM
TGI (OVCAR-3 ovarian): > 100 µM
TGI (DMS 273 small cell lung): > 100 µM
TGI (SF-268 CNS): > 100 µM
TGI (SNB-19 CNS): > 100 µM
TGI (LOX IMVI melanoma): 53.8 µM
TGI (MOLT-4 leukemia): > 100 µM
TGI (NCI-H460 lung): > 100 µM
TGI (K-562 leukemia): 53.4 µM
TGI (786-0 renal): > 100 µM
TGI (XF 498 CNS): 62.2 µM
TGI (COLO 205 colon): 31.9 µM
TGI (RPMI-8226 leukemia): > 100 µM
TGI (NCI-H522 lung): 90 µM
TGI (KM12 colon): > 100 µM
TGI (NCI-H23 lung): 52.2 µM
TGI (HOP-92 NSCLC): 75 µM
TGI (IGROV1 ovarian): > 100 µM
TGI (SF-539 CNS): 80.6 µM
TGI (MALME-3M melanoma): 41.5 µM
TGI (EKVX NSCLC): > 100 µM
